Source: ChEMBL document CHEMBL1201862, “PubChem BioAssay data set” (2004)
The source made the active and inactive calls.

Columns and labels:
[1] = Luminescence-based counterscreen assay for KLF5 inhibitors: dose response cell-based high throughput screening assay to identify cytotoxic compounds using the IEC-6 intestinal epithelial cell line. [Related pubchem assays: 1700 (Primary screen.), 1834 (Confirmation screen.), 1858 (Summary AID.), 1905 (Counterscreen.)]; format: functional
[2] = HEK-293T viability loss after treatment – luminescence, T-cell screen hits, cytotoxicity control for TCR NF-kB inhibitor project, dose response (AID 489026); format: functional, cell-based;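 also: cells exposed to compound about 14 hours before the viability readout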
Tumor necrosis factor = Tumor necrosis factor (Homo sapiens, UniProt P01375); assay: analog potency on TNFa NF-kB signaling – cell-based, revised, SAR follow-up (AID 2337); format: functional
HEK293 [3] = assay: inhibition of NOD1-driven NF-kB reporter – cell-based, luminescence, uHTS, primary screen (AID 1578); format: functional; details: Homo sapiens
HEK293 [4] = assay: cells; details: Homo sapiens
HEK293 [5] = assay: cells; format: functional, cell-based; details: Homo sapiens
HEK293 [6] = assay: cells; format: functional, cell-based; details: Homo sapiens; remark: listed apart in the source
HEK293 [7] = assay: cells; format: functional, cell-based; details: Homo sapiens; remark: listed apart in the source
H4 [8] = assay: Inhibitors of Prion Protein 5' UTR mRNA Measured in Cell-Based System Using Plate Reader - 2078-01_Inhibitor_Dose_DryPowder_Activity. [Related pubchem assays (depositor defined):AID488894]; format: functional; details: Homo sapiens
[9] = molecular target: T1, Nucleotide-binding oligomerization domain-containing protein 1 (Homo sapiens, UniProt Q9Y239); assay: blockers of NOD1 pathway activity – revised, SAR follow-up (AID 2333); format: functional
T1 sequence (Q9Y239 whole entry): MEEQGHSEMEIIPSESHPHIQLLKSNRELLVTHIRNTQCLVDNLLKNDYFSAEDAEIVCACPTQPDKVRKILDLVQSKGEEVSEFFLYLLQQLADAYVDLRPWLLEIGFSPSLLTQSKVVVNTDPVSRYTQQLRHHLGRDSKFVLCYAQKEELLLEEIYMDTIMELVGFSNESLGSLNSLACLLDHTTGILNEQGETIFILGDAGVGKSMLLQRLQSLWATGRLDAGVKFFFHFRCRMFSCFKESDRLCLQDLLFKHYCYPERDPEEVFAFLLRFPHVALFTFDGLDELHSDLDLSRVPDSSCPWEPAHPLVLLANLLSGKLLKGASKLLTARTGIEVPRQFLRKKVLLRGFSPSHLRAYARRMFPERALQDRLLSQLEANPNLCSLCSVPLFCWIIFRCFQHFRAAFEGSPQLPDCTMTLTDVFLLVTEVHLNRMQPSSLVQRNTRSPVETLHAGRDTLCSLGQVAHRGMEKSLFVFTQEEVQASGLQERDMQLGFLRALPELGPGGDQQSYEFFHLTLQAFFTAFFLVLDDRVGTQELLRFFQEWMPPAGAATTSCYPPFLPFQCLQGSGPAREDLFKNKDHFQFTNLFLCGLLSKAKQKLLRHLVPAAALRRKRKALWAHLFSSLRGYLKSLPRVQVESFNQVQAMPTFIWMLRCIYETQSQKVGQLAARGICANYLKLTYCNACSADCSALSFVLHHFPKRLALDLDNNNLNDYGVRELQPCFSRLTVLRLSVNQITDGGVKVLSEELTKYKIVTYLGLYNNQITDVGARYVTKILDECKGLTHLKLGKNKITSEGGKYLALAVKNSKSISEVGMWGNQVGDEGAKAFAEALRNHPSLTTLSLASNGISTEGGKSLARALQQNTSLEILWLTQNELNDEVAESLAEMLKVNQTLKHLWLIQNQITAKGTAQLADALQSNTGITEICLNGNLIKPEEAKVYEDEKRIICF

[10] = molecular target: Nucleotide-binding oligomerization domain-containing protein 2 (Homo sapiens, UniProt Q9HC29); assay: inhibition of NOD2-driven NF-kB reporter – cell-based, luminescence, uHTS, HEK293 (AID 1566); format: functional
H4 [11] = assay: inhibitors of control reporter signal in H4 cells – cell-based, plate reader, dry powder samples, counter-screen for prion reporter project, dose response (AID 540255); format: functional; details: Homo sapiens
HEK293 [12] = assay: NOD2 signaling inhibitors in MDP-stimulated cells, cell-based, uHTS, luminescence (AID 2001); format: functional; details: Homo sapiens
[13] = molecular target: Beta-adrenergic receptor kinase 1 (Homo sapiens, UniProt P25098); assay: aptamer displacement from bead-bound GRK2 – biochemical, cherry pick 1, bead flow cytometry, dose response (AID 504500)
[14] = molecular target: T2, Apoptotic protease-activating factor 1 (Homo sapiens, UniProt O14727); assay: activation of Apaf-1 mediated apoptosis – fluorescent, uHTS hits, dose response (AID 588554); format: functional
T2 sequence (O14727 whole entry): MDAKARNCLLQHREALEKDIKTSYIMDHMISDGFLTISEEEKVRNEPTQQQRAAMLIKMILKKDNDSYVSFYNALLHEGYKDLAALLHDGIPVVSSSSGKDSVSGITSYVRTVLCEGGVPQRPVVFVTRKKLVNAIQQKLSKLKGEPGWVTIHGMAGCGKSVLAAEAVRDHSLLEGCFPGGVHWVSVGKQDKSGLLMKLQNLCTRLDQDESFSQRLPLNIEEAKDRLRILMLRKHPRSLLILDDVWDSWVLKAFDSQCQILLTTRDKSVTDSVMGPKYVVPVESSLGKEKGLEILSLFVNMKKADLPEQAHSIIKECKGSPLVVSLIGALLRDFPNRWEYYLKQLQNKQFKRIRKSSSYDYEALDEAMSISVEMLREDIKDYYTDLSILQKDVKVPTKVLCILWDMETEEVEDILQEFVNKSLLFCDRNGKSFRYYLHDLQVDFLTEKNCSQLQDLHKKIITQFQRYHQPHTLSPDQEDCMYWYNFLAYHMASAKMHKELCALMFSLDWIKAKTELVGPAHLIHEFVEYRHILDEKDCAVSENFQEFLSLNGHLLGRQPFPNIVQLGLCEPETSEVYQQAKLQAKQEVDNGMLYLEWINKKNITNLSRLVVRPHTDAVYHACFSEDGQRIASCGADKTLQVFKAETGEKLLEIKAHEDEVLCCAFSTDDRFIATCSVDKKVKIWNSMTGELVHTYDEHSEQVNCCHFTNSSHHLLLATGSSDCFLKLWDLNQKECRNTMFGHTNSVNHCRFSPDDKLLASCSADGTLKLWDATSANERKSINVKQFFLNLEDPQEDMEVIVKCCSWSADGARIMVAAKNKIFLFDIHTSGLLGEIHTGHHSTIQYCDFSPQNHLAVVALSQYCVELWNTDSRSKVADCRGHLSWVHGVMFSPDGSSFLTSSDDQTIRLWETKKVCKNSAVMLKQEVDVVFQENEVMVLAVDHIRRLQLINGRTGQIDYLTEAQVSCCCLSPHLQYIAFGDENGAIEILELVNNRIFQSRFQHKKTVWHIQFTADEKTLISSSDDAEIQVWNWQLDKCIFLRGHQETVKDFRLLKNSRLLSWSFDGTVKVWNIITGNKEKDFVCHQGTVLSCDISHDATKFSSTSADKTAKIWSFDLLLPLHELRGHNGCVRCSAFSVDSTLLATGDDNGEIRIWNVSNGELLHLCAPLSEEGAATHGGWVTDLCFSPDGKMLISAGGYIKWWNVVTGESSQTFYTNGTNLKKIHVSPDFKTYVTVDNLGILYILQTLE

[15] = molecular target: Induced myeloid leukemia cell differentiation protein Mcl-1 (Homo sapiens, UniProt Q07820); format: functional
[16] = molecular target: Polyadenylate-binding protein 1 (Homo sapiens, UniProt P11940); assay: blockers of PABP interaction with poly(A) – biochemical, fluorescence polarization, […] (AID 2014)
[17] = molecular target: Eukaryotic translation initiation factor 4H (Homo sapiens, UniProt Q15056); assay: eIF4H binding inhibition – biochemical, uHTS, fluorescence polarization, translation initiation inhibitor project, primary screen (AID 2012)
Cysteine protease ATG4B = Cysteine protease ATG4B (Homo sapiens, UniProt Q9Y4P1); format: functional;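 also: Fluorescence-based dose-response confirmation assay measuring inhibition of ATG4B activity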
Phospholipase A2 = Phospholipase A2 (Homo sapiens, UniProt P04054); format: functional;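 also: confirmatory dose-response counterscreen on phospholipase A2, testing hits that came from an ultra-high-throughput screen for ATG4B inhibitors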
[18] = Mcl1-dependent cancer cell viability – HMC-1-8 cells, luminescence, dry powder, selectivity assay for A1 inhibitor project, dose response (AID 504415); format: functional, cell-based; details: Homo sapiens
BJ [19] = assay: cells; format: functional, cell-based; details: Homo sapiens
[20] = DRD fibroblast viability loss – cell-based, non-viral oncogenic, luminescence, dose response (AID 1934); format: functional; details: Homo sapiens
[21] = molecular target: Latent membrane protein 1 (Human herpesvirus 4 (strain B95-8), UniProt P03230); assay: LMP1 TES1 pathway selectivity over dsRED control – imaging, HEK293T, dual-color eGFP/dsRED, cherry-picks, selectivity assay for LMP1 NF-kB inhibitor project, dose response (AID 588398); format: functional, cell-based
BJ [22] = assay: BJ-TERT-LT-ST fibroblast viability loss – cell-based, RAS-independent, luminescence, dose response (AID 1935); format: functional; details: Homo sapiens;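 also: BJ fibroblasts immortalized with TERT plus LT and ST oncogenes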
BJ [23] = assay: BJ-TERT fibroblast viability loss – cell-based, RAS-independent, luminescence, dose response (AID 1933); format: functional; details: Homo sapiens
[24] = molecular target: Voltage-gated inwardly rectifying potassium channel KCNH2 (Homo sapiens, UniProt Q12809); details: Potency;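 also: confirmatory quantitative high-throughput screen measuring inhibition of hERG channel activity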
[25] = NIH-3T3 fibroblast cytotoxicity, dose response, cytotoxicity control, cell-based, fluorescence, Alamar Blue, secondary assay (AID 2327); format: functional;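 also: NIH-3T3 mouse fibroblasts cultured with fluconazole at 8 µg/mL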
Mu-type opioid receptor = Mu-type opioid receptor (Homo sapiens, UniProt P35372); format: functional, cell-based;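 also: U2OS cells with beta-arrestin recruitment to OPRM1 by beta-gal complementation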
[26] = molecular target: 5-hydroxytryptamine receptor 2A (Mus musculus, UniProt P35363); format: functional, cell-based;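 also: CHO-K1 cells with tagged receptor and beta-arrestin; agonist potency measured as compound-induced activation of the receptor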
[27] = molecular target: T3, Ubiquitin-conjugating enzyme E2 N (Homo sapiens, UniProt P61088); format: functional;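 also: Dose-response confirmation in a TR-FRET assay detecting UBC13-driven polyubiquitin chain formation, inhibition measured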
T3 sequence (P61088 whole entry): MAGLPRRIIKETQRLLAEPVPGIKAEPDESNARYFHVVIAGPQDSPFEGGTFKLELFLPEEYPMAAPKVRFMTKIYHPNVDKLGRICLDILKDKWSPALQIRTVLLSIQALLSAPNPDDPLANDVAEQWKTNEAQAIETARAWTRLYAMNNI

[28] = fluconazole-exposed Candida albicans growth modulators – fluorescence, retest, confirmation (AID 2467); format: functional, cell-based
HEK293 [29] = assay: HEK293T cell viability loss, resazurin readout – resazurin fluorescence, cytotoxicity control for NF-kB activator project, SAR follow-up (AID 493251); format: functional, cell-based; details: Homo sapiens
Jurkat = assay: SAR Analysis of small molecule inhibitors of T-cell specific antigen receptor-induced NF-kB activation in a Jurkat cell line using a luminescence assay. [Related pubchem assays (depositor defined):AID435003, AID435012, AID465]; format: functional, cell-based; details: Homo sapiens
HEK293 [30] = assay: SAR Analysis of small molecule inhibitors of T-cell specific antigen receptor-induced NF-kB activation in a HEK-293T cell line using a luminescence assay. [Related pubchem assays (depositor defined):AID435003, AID435012, AID489026]; format: functional, cell-based; details: Homo sapiens

Mu-type opioid receptor, sequence (P35372 whole entry): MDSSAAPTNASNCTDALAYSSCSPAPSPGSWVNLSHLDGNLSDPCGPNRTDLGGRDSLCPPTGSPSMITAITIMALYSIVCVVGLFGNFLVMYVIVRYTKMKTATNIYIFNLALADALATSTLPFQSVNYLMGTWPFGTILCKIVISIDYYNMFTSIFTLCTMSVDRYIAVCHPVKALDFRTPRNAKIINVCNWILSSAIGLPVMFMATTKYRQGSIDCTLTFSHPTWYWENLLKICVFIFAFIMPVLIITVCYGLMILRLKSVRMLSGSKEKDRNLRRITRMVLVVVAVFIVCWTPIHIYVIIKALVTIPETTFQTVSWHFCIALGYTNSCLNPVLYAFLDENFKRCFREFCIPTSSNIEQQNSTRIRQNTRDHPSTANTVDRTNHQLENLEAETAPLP
Latent membrane protein 1, sequence (P03230 whole entry): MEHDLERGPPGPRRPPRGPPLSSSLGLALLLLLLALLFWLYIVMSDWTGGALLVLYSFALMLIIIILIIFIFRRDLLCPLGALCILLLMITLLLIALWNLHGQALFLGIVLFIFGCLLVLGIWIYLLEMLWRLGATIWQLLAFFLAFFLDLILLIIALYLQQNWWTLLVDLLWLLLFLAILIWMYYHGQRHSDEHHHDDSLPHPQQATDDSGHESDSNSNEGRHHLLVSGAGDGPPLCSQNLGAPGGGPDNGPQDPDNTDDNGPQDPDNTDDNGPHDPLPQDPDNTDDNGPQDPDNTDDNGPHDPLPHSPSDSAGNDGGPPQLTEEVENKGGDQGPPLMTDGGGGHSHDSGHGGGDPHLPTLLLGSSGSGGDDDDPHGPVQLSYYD
Cysteine protease ATG4B, sequence (Q9Y4P1 whole entry): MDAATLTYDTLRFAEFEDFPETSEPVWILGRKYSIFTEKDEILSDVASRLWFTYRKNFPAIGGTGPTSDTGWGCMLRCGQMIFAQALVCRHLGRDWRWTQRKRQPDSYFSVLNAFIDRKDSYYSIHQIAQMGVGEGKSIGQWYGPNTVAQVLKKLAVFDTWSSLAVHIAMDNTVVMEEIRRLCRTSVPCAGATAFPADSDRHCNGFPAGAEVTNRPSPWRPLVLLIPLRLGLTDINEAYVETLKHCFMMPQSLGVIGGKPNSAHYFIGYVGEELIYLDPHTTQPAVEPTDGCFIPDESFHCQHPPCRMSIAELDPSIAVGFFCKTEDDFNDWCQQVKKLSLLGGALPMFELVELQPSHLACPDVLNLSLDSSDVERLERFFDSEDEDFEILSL
Polyadenylate-binding protein 1, sequence (P11940 whole entry): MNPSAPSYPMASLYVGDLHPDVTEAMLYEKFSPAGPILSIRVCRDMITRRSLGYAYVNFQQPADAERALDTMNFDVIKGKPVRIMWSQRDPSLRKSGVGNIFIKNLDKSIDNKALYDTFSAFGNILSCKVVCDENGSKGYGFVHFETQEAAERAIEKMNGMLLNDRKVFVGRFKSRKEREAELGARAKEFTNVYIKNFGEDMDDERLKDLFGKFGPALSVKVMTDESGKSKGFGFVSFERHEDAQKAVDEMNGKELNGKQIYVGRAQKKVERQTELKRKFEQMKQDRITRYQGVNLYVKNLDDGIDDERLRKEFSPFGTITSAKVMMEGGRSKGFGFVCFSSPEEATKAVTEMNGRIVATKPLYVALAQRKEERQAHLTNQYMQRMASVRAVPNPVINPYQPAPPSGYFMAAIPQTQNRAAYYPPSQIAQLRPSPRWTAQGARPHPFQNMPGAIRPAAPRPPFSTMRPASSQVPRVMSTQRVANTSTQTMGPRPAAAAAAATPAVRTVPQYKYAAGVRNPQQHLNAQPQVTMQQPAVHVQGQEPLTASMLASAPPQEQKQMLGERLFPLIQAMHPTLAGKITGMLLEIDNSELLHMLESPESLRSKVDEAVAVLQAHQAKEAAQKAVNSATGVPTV
Induced myeloid leukemia cell differentiation protein Mcl-1, sequence (Q07820 whole entry): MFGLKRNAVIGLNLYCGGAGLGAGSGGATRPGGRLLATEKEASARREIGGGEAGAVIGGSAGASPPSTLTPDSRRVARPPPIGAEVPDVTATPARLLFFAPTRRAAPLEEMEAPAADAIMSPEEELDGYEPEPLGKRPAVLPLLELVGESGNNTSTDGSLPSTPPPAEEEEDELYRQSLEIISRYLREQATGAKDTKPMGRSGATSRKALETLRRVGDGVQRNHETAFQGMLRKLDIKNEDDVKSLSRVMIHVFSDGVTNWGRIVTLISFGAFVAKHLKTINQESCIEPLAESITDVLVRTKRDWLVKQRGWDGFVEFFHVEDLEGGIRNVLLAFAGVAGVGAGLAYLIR
Nucleotide-binding oligomerization domain-containing protein 2, sequence (Q9HC29 whole entry, the tested form may be a part): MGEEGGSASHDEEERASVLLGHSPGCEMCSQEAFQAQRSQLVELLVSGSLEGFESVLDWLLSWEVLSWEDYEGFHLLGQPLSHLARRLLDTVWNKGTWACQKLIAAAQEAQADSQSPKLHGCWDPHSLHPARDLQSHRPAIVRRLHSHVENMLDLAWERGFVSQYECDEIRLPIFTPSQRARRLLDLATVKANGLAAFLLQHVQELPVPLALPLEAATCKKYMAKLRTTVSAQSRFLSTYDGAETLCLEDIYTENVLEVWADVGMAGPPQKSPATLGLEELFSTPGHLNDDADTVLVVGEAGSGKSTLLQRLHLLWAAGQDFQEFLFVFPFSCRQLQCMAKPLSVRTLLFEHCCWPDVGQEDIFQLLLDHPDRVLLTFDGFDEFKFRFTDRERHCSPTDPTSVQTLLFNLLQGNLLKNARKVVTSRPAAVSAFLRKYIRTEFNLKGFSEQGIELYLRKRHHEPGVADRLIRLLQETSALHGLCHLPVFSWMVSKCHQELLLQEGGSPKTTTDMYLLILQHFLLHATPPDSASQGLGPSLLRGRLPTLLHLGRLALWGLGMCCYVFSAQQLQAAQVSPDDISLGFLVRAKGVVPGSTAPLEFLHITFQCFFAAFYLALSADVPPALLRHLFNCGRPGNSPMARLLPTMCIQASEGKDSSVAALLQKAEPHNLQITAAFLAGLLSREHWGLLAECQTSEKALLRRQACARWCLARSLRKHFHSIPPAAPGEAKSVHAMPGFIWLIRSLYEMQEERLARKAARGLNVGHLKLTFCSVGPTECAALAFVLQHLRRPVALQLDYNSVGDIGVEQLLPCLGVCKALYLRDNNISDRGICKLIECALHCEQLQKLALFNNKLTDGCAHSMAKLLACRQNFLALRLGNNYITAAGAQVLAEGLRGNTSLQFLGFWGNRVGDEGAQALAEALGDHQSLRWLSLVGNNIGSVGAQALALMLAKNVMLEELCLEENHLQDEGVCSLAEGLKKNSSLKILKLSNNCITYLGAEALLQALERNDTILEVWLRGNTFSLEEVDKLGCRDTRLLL
Beta-adrenergic receptor kinase 1, sequence (P25098 whole entry): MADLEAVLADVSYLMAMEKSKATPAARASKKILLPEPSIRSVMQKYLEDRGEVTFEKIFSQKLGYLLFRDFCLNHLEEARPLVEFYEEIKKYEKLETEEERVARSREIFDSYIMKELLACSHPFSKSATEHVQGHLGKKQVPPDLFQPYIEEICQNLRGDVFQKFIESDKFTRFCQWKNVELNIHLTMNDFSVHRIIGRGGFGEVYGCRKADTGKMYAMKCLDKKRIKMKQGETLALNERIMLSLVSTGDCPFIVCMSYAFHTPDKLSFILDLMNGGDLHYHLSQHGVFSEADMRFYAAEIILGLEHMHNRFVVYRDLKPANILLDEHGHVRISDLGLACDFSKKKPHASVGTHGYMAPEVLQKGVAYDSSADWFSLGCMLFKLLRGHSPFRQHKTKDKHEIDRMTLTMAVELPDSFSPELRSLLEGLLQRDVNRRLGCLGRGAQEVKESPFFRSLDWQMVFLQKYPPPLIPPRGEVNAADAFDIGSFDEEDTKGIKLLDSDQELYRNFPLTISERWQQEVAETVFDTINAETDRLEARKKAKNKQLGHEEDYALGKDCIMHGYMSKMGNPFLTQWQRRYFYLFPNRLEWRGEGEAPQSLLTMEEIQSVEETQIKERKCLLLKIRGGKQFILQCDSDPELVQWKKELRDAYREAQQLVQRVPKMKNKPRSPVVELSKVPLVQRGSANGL
Tumor necrosis factor, sequence (P01375 whole entry): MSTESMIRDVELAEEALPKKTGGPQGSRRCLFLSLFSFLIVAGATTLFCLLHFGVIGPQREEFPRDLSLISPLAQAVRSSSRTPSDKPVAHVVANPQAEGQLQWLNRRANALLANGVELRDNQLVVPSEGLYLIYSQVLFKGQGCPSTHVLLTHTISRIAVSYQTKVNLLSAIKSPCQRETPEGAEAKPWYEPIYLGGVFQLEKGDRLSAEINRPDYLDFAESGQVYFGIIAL
5-hydroxytryptamine receptor 2A, sequence (P35363 whole entry): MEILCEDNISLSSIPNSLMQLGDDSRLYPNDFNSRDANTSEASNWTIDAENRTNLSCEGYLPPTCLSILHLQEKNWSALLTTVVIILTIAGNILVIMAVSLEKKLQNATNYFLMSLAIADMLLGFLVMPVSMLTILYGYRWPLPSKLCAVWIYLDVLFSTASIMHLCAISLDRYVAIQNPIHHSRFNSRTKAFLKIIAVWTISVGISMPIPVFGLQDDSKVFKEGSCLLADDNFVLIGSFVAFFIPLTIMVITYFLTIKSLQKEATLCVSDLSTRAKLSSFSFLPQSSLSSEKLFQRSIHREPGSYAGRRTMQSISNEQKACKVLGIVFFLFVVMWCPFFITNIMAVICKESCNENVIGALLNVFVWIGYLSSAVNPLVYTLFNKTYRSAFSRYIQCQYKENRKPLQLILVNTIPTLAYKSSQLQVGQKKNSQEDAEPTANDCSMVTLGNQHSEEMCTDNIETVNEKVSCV

CC(C)(C)c1ccc(C(=O)O/N=C(\N)c2ccccn2)cc1
inactive: IC50 [2] > 80 µM | IC50 (HEK293 [4]) > 20 µM | IC50 (HEK293 [5]) > 20 µM | IC50 (HEK293 [6]) > 20 µM
23.1 µM (not active): IC50 [1]
active: IC50 (Tumor necrosis factor) 0.952 µM | EC50 (HEK293 [3]) 2.73 µM | IC50 (HEK293 [7]) < 0.312 µM | AC50 (H4 [8]) 0.032 µM | IC50 [9] 2 µM | EC50 [10] 0.04 µM | AC50 (H4 [11]) 0.034 µM | IC50 (HEK293 [12]) 3.04 µM

C=C(C)C(=O)Nc1cccc(C2=NOC3(C2)C[C@@H](C(N)=O)N(C(=O)c2ccc(Cl)cc2)C3)c1 (some centres undefined)
active: EC50 [13] 0.73 µM | EC50 [14] 2.35 µM | IC50 [15] 1.54 µM | IC50 [16] 9.01 µM | IC50 [17] 0.7 µM

CC(C)c1ccc(NC2CCCN(C(=O)c3cc(C(C)C)n[nH]3)C2)cc1 (centres undefined)
active: IC50 (Cysteine protease ATG4B) 16.8 µM | IC50 (Phospholipase A2) 12.2 µM

O=c1oc2ccccc2c(Sc2ccccc2)c1[N+](=O)[O-]
active: AC50 [18] 56.1 µM

CCOc1ccc(C(C)=O)cc1COc1cccnc1[N+](=O)[O-]
inconclusive: EC50 (BJ [22]) > 150 µM
active: EC50 (BJ [19]) 32.2 µM | EC50 [20] 21.9 µM | AC50 [21] 80.9 µM | EC50 (BJ [23]) 23.1 µM

NC[C@@H]1O[C@H](C23CC4CC(CC(C4)C2)C3)Cc2c1ccc(O)c2O
inactive: EC50 [25] > 150 µM | EC50 (Mu-type opioid receptor) 92.4 µM | IC50 [27] > 20 µM
active: EC50 [20] 13.1 µM | EC50 [26] 1.2 µM | EC50 [28] 4.44 µM
> 150 µM (not active): EC50 (BJ [19])
inconclusive: AC50 [24] 22.4 µM | EC50 (BJ [22]) 13.7 µM | EC50 (BJ [23]) 10.3 µM

COc1ccc(C(NC(C)=O)c2ccc3cccnc3c2O)cc1 (centres undefined)
active: IC50 (HEK293 [29]) 16.5 µM | IC50 (Jurkat) 4.23 µM | IC50 (HEK293 [30]) 6.35 µM
